This is an account of results in patent US10710992B2, “Substituted pyridinones as bromodomain inhibitors” (Zenith Epigenetics Ltd., priority 2014, dated 2020).

The structures appear in SMILES notation.

Assay [1] has as its target T1, Brd4 bromodomain 1 (BRD4(1)) (Homo sapiens, UniProt O60885).
T1 construct: made in house; host or cells: E. coli BL21(DE3)
Put plainly: Inhibition of tetra-acetylated histone H4 binding to BET bromodomain (HTRF/FRET). The conditions noted are these: His-tagged bromodomain 200 nM, tetra-acetylated histone H4 peptide, 2 h room temperature. Here is the method: Proteins were cloned and overexpressed with a N-terminal 6× His tag, then purified by nickel affinity followed by size exclusion chromatography. Briefly, E. coli BL21(DE3) cells were transformed with a recombinant expression vector encoding N-terminally Nickel affinity tagged bromodomains from Brd2, Brd3, Brd4. Cell cultures were incubated at 37° C. with shaking to the appropriate density and induced overnight with IPTG. The supernatant of lysed cells was loaded onto Ni-IDA column for purification. Eluted protein was pooled, concentrated and further purified by size exclusion chromatography. Fractions representing monomeric protein were pooled, concentrated, aliquoted, and frozen at −80° C. for use in subsequent experiments.
Binding of tetra-acetylated histone H4 and BET bromodomains was confirmed by a Homogenous Time Resolved Fluorescence Resonance Energy Transfer (HTRF®) method. N-terminally His-tagged bromodomains (200 nM) and biotinylated tetra-acetylated historic H4 peptide (25-50 nM, Millipore) were incubated in the presence of Europium Cryptate-labeled streptavidin (Cisbio Cat. #610SAKLB) and XL665-labeled monoclonal anti-His antibody (Cisbio Cat. #61HISXLB) in a white 96 well microtiter plate (Greiner). For inhibition assays, serially diluted test compound was added to these reactions in a 0.2% final concentration of DMSO. Duplicate wells were used for each concentration tested. Final buffer concentrations were 30 mM HEPES pH 7.4, 30 mM NaCl, 0.3 mM CHAPS, 20 mM phosphate pH 7.0, 320 mM KF, 0.08% BSA. After a 2 h incubation at room temperature, fluorescence was measured at 665 and 620 nm with a SynergyH4 plate reader (Biotek). The binding inhibitory activity was shown by a decrease in 665 nm relative to […] fluorescence. IC50 values were determined from a dose response curve.

For assay [2], the system named is c-myc in Human AML MV4-11 cells. Put plainly: Inhibition of cMYC expression in cancer cell lines (mRNA, real-time PCR). In kind it is cell-based. The conditions noted are these: Homo sapiens, 3 h, cMYC mRNA normalized to Cyclophilin. Here is the method:
MV4-11 cells (CRL-9591) were plated at a density of 2.5×10^4 cells per well in 96 well U-bottom plates and treated with increasing concentrations of test compound or DMSO (0.1%) in IMDM media containing 10% FBS and penicillin/streptomycin, and incubated for 3 h at 37° C. Triplicate wells were used for each concentration. Cells were pelleted by centrifugation and harvested using the mRNA Catcher PLUS kit according to manufacturer's instructions. The eluted mRNA isolated was then used in a one-step quantitative real-time PCR reaction, using components of the RNA UltraSense™ One-Step Kit (Life Technologies) together with Applied Biosystems TaqMan® primer-probes for cMYC and Cyclophilin. Real-time PCR plates were run on a ViiA™ 7 real time PCR machine (Applied Biosystems), data was analyzed, normalizing the Ct values for cMYC to an internal control, prior to determining the fold expression of each sample, relative to the control.

The next assay concerns Human AML MV-4-11 cells. Kind of assay: Inhibition of cell proliferation in cancer cell lines (CellTiter Aqueous One). In kind it is cell-based. Conditions: Homo sapiens; MV4-11 cells, 72 h. Here is the method: MV4-11 cells (CRL-9591) were plated at a density of 5×10^4 cells per well in 96 well flat bottom plates and treated with increasing concentrations of test compound or DMSO (0.1%) in IMDM media containing 10% FBS and penicillin/streptomycin. Triplicate wells were used for each concentration and a well containing only media was used as a control. Plates were incubated at 37° C., 5% CO2 for 72 h before adding 20 μL of the CellTiter Aqueous One Solution (Promega) to each well and incubated at 37° C., 5% CO2 for an additional 3-4 h. The absorbance was read at 490 nm in a spectrophotometer and the percentage of cell titer relative to DMSO-treated cells was calculated after correcting for background by subtracting the blank well's signal. IC50 values were calculated using the GraphPad Prism software.

The test system of the next assay is hIL-6 mRNA. Kind of assay: Inhibition of hIL-6 mRNA transcription in LPS-stimulated U937 cells. In kind it is cell-based. The conditions noted are these: Homo sapiens, U-937; PMA-differentiated U937 cells, 1 h pretreatment, LPS 1 ug/mL, 3 h; read-out: IL-6 activity. The method, then:
Human leukemic monocyte lymphoma U937 cells (CRL-1593.2) were plated at a density of 3.2×10^4 cells per well in a 96-well plate in 100 μL RPMI-1640 containing 10% FBS and penicillin/streptomycin, and differentiated into macrophages for 3 days in 60 ng/mL PMA ([…]) at 37° C. in 5% CO2 prior to the addition of compound. The cells were pretreated for 1 h with increasing concentrations of test compound in 0.1% DMSO prior to stimulation with 1 ug/mL lipopolysaccharide from Escherichia coli. Triplicate wells were used for each concentration. The cells were incubated at 37° C., 5% CO2 for 3 h before the cells were harvested. At time of harvest, media was removed and cells were rinsed in 200 μL PBS. Cells were harvested using the mRNA Catcher PLUS kit according to manufacturer's instructions. The eluted mRNA was then used in a one-step quantitative real-time PCR reaction using components of the RNA UltraSense™ One-Step Kit (Life Technologies) together with Applied Biosystems TaqMan® primer-probes for hIL-6 and Cyclophilin. Real-time PCR plates were run on a ViiA™ 7 real time PCR machine (Applied Biosystems), data was analyzed, normalizing the Ct values for hIL-6 to an internal control, prior to determining the fold expression of each sample, relative to the control.

Turning to `Cc1noc(C)c1Nc1cc(-c2c(C)noc2C)c[nH]c1=O` [Example 34, 5-(3,5-dimethylisoxazol-4-yl)-3-((3,5-dimethylisoxazol-4-yl)amino)pyridin-2(1H)-one], the IC50 in assay [1] was no more than 0.3 µM; in assay [2] it was 0.3 to 3 µM; with Human AML MV-4-11 cells, 0.3 to 3 µM; in the assay on hIL-6 mRNA, 0.3 to 3 µM.
`Cc1noc(C)c1-c1c[nH]c(=O)c(NCc2ccc(F)cc2)c1` [Example 21, 5-(3,5-dimethylisoxazol-4-yl)-3-((4-fluorobenzyl)amino)pyridin-2(1H)-one]: the IC50 in assay [1] is no more than 0.3 µM; in assay [2], 0.3 to 3 µM; with Human AML MV-4-11 cells, 0.3 to 3 µM; in the assay with hIL-6 mRNA, 0.3 to 3 µM.
Consider `Cc1noc(C)c1-c1c[nH]c(=O)c(Oc2ccccc2)c1` [Example 5, 5-(3,5-dimethylisoxazol-4-yl)-3-phenoxypyridin-2(1H)-one], for which, in assay [1], the IC50 lay within 0.3 to 3 µM.
The same measure, in the same setting: to `Cc1noc(C)c1-c1c[nH]c(=O)c(-c2c(C)noc2C)c1` [Example 32, 3,5-bis(3,5-dimethylisoxazol-4-yl)pyridin-2(1H)-one] belongs 3 to 30 µM.
Take `Cc1noc(C)c1-c1c[nH]c(=O)c(NCc2nccs2)c1` [Example 30, 5-(3,5-dimethylisoxazol-4-yl)-3-((thiazol-2-ylmethyl)amino)pyridin-2(1H)-one]: the IC50 in assay [1] was no more than 0.3 µM; in assay [2] it was 3 to 30 µM; with Human AML MV-4-11 cells, 0.3 to 3 µM; in the assay with hIL-6 mRNA, 0.3 to 3 µM.
For `Cc1noc(C)c1-c1c[nH]c(=O)c(Nc2cccc(F)c2)c1` [Example 3, 5-(3,5-dimethylisoxazol-4-yl)-3-((3-fluorophenyl)amino)pyridin-2(1H)-one], the IC50 is 0.3 to 3 µM in assay [1], 0.3 to 3 µM in assay [2], 3 to 30 µM in the assay on Human AML MV-4-11 cells and 0.3 to 3 µM with hIL-6 mRNA.
As for `Cc1noc(C)c1-c1c[nH]c(=O)c(NCc2ccc3ccccc3c2)c1` [Example 33, 5-(3,5-dimethylisoxazol-4-yl)-3-((naphthalen-2-ylmethyl)amino)pyridin-2(1H)-one], the IC50 in assay [1] was in the range of 0.3 to 3 µM; in assay [2], 3 to 30 µM; in the assay with Human AML MV-4-11 cells, 3 to 30 µM; with hIL-6 mRNA, 0.3 to 3 µM.
Take `Cc1noc(C)c1-c1c[nH]c(=O)c(Nc2ccc(F)cc2)c1` [Example 16, 5-(3,5-dimethylisoxazol-4-yl)-3-((4-fluorophenyl)amino)pyridin-2(1H)-one]: the IC50 in assay [1] is 0.3 to 3 µM.
The same measure, in the same setting: to `Cc1noc(C)c1-c1c[nH]c(=O)c(NCc2nc3ccccc3[nH]2)c1` [Example 38, 3-(((1H-benzo[d]imidazol-2-yl)methyl)amino)-5-(3,5-dimethylisoxazol-4-yl)pyridin-2(1H)-one] belongs 0.3 to 3 µM.
For the compound `Cc1noc(C)c1-c1c[nH]c(=O)c(NC(C)c2ccc(Cl)cc2)c1` (stereo not drawn) [Example 18, 3-((1-(4-chlorophenyl)ethyl)amino)-5-(3,5-dimethylisoxazol-4-yl)pyridin-2(1H)-one], the IC50 in assay [1] lay within 0.3 to 3 µM; in assay [2], 0.3 to 3 µM; in the assay with Human AML MV-4-11 cells, 3 to 30 µM.
`Cc1noc(C)c1-c1c[nH]c(=O)c(NCc2ccc(Br)cc2)c1` [Example 19, 3-((4-bromobenzyl)amino)-5-(3,5-dimethylisoxazol-4-yl)pyridin-2(1H)-one]: the IC50 in assay [1] is 0.3 to 3 µM; in assay [2], 3 to 30 µM; in the assay with Human AML MV-4-11 cells, 3 to 30 µM.
Consider `Cc1noc(C)c1-c1c[nH]c(=O)c(NCc2ccc(Cl)cc2)c1` [Example 8, 3-((4-chlorobenzyl)amino)-5-(3,5-dimethylisoxazol-4-yl)pyridin-2(1H)-one], for which the IC50 in assay [1] is no more than 0.3 µM; in assay [2] it was 3 to 30 µM; in the assay with Human AML MV-4-11 cells, 3 to 30 µM; with hIL-6 mRNA, 0.3 to 3 µM.
For `Cc1noc(C)c1-c1c[nH]c(=O)c(NCc2cccnc2)c1` [Example 23, 5-(3,5-dimethylisoxazol-4-yl)-3-((pyridin-3-ylmethyl)amino)pyridin-2(1H)-one], the IC50 in assay [1] is no more than 0.3 µM; in assay [2] it was 0.3 to 3 µM; in the assay on hIL-6 mRNA, 0.3 to 3 µM.
As for `COc1cccc(Nc2cc(-c3c(C)noc3C)c[nH]c2=O)c1` [Example 7, 5-(3,5-dimethylisoxazol-4-yl)-3-((3-methoxyphenyl)amino)pyridin-2(1H)-one], the IC50 in assay [1] lay in the range of 0.3 to 3 µM; in the assay on Human AML MV-4-11 cells it was 3 to 30 µM.
For `Cc1noc(C)c1-c1c[nH]c(=O)c(OCc2ccccn2)c1` [Example 26, 5-(3,5-dimethylisoxazol-4-yl)-3-(pyridin-2-ylmethoxy)pyridin-2(1H)-one], the IC50 in assay [1] lay within 0.3 to 3 µM.
Turning to `Cc1noc(C)c1-c1c[nH]c(=O)c(NCc2ccc(Cl)s2)c1` [Example 12, 3-(((5-chlorothiophen-2-yl)methyl)amino)-5-(3,5-dimethylisoxazol-4-yl)pyridin-2(1H)-one], the IC50 in assay [1] is no more than 0.3 µM; in the assay with Human AML MV-4-11 cells, 0.3 to 3 µM; with hIL-6 mRNA, 0.3 to 3 µM.
On to `Cc1noc(C)c1-c1c[nH]c(=O)c(OCc2ccc(C#N)cc2)c1` [Example 25, 4-(((5-(3,5-dimethylisoxazol-4-yl)-2-oxo-1,2-dihydropyridin-3-yl)oxy)methyl)benzonitrile], for which the IC50 in assay [1] fell in the range of 0.3 to 3 µM.
`Cc1noc(C)c1-c1c[nH]c(=O)c(Nc2ccc(C#N)cc2)c1` [Example 28, 4-((5-(3,5-dimethylisoxazol-4-yl)-2-oxo-1,2-dihydropyridin-3-yl)amino)benzonitrile]: the IC50 in assay [1] lay in the range of 0.3 to 3 µM.
Take `Cc1noc(C)c1-c1c[nH]c(=O)c(NCCc2ccccc2)c1` [Example 22, 5-(3,5-dimethylisoxazol-4-yl)-3-(phenethylamino)pyridin-2(1H)-one]: in assay [1], the IC50 was in the range of 0.3 to 3 µM.
Take `Cc1cccc(Nc2cc(-c3c(C)noc3C)c[nH]c2=O)c1` [Example 6, 5-(3,5-dimethylisoxazol-4-yl)-3-(m-tolylamino)pyridin-2(1H)-one]: the IC50 in assay [1] is no more than 0.3 µM; in the assay on Human AML MV-4-11 cells, 0.3 to 3 µM; in the assay on hIL-6 mRNA, 0.3 to 3 µM.
`Cc1noc(C)c1-c1c[nH]c(=O)c(Nc2ccccc2F)c1` [Example 15, 5-(3,5-dimethylisoxazol-4-yl)-3-((2-fluorophenyl)amino)pyridin-2(1H)-one]: the IC50 in assay [1] lay within 0.3 to 3 µM.
Consider `Cc1noc(C)c1-c1c[nH]c(=O)c(Nc2ccc(Cl)cc2)c1` [Example 29, 3-((4-chlorophenyl)amino)-5-(3,5-dimethylisoxazol-4-yl)pyridin-2(1H)-one], for which the results for the IC50 (in assay [1]; in assay [2]; with Human AML MV-4-11 cells) were 0.3 to 3 µM, 3 to 30 µM and 3 to 30 µM, respectively.
Turning to `Cc1noc(C)c1-c1c[nH]c(=O)c(NCc2cnoc2)c1` [Example 31, 5-(3,5-dimethylisoxazol-4-yl)-3-((isoxazol-4-ylmethyl)amino)pyridin-2(1H)-one], in assay [1], the IC50 is 0.3 to 3 µM.
